Reference: ChEMBL document CHEMBL5550161, “Discovery of novel small molecules targeting the USP21/JAK2/STAT3 axis for the treatment of triple-negative breast cancer” (Eur J Med Chem, 2024)
The source made the active and inactive calls. The rule behind the calls is not given here.

Columns and labels:
[1] = system: MDA-MB-231; assay: Inhibition of colony formation in human MDA-MB-231 cells at 0.05 uM measured after 7 days; format: functional, cell-based; conditions: time 7.0 day
[2] = system: HCC1806; assay: Induction of apoptosis in human HCC1806 cells assessed as ROS production rate at 0.1 uM incubated for 24 hrs by DCFH-DA staining based flow cytometry (reference value: 0.23 %); format: functional
[3] = system: MDA-MB-231; assay: Anti-proliferative activity against human MDA-MB-231 cells assessed as reduction in EdU-positive cells at 0.2 uM; format: functional, cell-based
[4] = system: HCC1806; assay: Inhibition of colony formation in human HCC1806 cells at 0.05 uM measured after 7 days; format: functional, cell-based; conditions: time 7.0 day
[5] = system: HCC1806; assay: Antitumor activity against human HCC1806 cells xenografted in Balb/c mouse assessed as decrease in Bcl-2 level at 40 to 60 mg/kg, ip bid measured after 14 days by IHC analysis; format: functional, organism-based; conditions: dose 40-60 mg/kg, time 14.0 day
[6] = system: MDA-MB-231; assay: Induction of apoptosis in human MDA-MB-231 cells assessed as late apoptotic cells at 0.4 uM incubated for 24 hrs by Annexin V-FITC/PI staining based flow cytometry (reference value: 1.23 %); format: functional
[7] = system: HCC1806; assay: Antitumor activity against human HCC1806 cells xenografted in Balb/c mouse assessed as decrease in STAT3 level at 40 to 60 mg/kg, ip bid measured after 14 days by immunofluorescence based analysis; format: functional, organism-based; conditions: dose 40-60 mg/kg, time 14.0 day
[8] = system: HCC1806; assay: Induction of apoptosis in human HCC1806 cells assessed as late apoptotic cells at 1.6 uM incubated for 24 hrs by Annexin V-FITC/PI staining based flow cytometry (reference value: 0.23 %); format: functional
[9] = system: MDA-MB-231; assay: Induction of apoptosis in human MDA-MB-231 cells assessed as late apoptotic cells at 1.6 uM incubated for 24 hrs by Annexin V-FITC/PI staining based flow cytometry (reference value: 1.23 %); format: functional
[10] = system: HCC1806; assay: Downregulation of USP21 level in human HCC1806 cells at 0.1 to 0.4 uM incubated for 24 hrs by Western blot analysis; format: functional, cell-based; conditions: dose 0.1-0.4 µM
[11] = system: HCC1806; assay: Induction of apoptosis in human HCC1806 cells assessed as necrotic cells at 1.6 uM incubated for 24 hrs by Annexin V-FITC/PI staining based flow cytometry (reference value: 0.15 %); format: functional
[12] = Toxicity in Balb/c nude mouse assessed as histopathological change in spleen at 60 mg/kg, ip bid for 14 days consecutively; format: organism-based; conditions: in vivo, 336 h, time 14 day
[13] = system: HCC1806; assay: Induction of apoptosis in human HCC1806 cells assessed as viable cells at 0.2 uM incubated for 24 hrs by Annexin V-FITC/PI staining based flow cytometry (reference value: 98.95 %); format: functional; conditions: read-out: Activity
[14] = target: Tyrosine-protein kinase JAK2 (Homo sapiens, UniProt O60674); assay: Induction of JAK2 degradation in Carfilzomib-treated human HCC1806 cells at 0.4 uM incubated for 24 hrs by Western blot analysis; format: cell-based
[15] = system: HCC1806; assay: Inhibition of cell migration in human HCC1806 cells; format: functional, cell-based; conditions: dose 0.05-2 µM
[16] = system: HCC1806; assay: Induction of apoptosis in human HCC1806 cells assessed as early apoptotic cells at 0.8 uM incubated for 24 hrs by Annexin V-FITC/PI staining based flow cytometry (reference value: 0.67 %); format: functional
[17] = system: HCC1806; assay: Induction of apoptosis in human HCC1806 cells assessed as decrease in JAK2 level by Western blot analysis; format: functional, cell-based; conditions: dose 0.1-0.4 µM
[18] = system: HCC1806; assay: Induction of apoptosis in human HCC1806 cells assessed as ROS production rate at 0.2 uM incubated for 24 hrs by DCFH-DA staining based flow cytometry (reference value: 0.23 %); format: functional
[19] = system: MDA-MB-231; assay: Induction of apoptosis in human MDA-MB-231 cells assessed as viable cells at 0.1 uM incubated for 24 hrs by Annexin V-FITC/PI staining based flow cytometry (reference value: 97.54 %); format: functional; conditions: read-out: Activity
[20] = system: HCC1806; assay: Induction of apoptosis in human HCC1806 cells assessed as early apoptotic cells at 0.2 uM incubated for 24 hrs by Annexin V-FITC/PI staining based flow cytometry (reference value: 0.67 %); format: functional
[21] = system: HCC1806; assay: Upregulation of JAK2 mRNA level in human HCC1806 cells at 0.2 uM incubated for 18 to 72 hrs; format: functional, cell-based; conditions: time 18-72 hrs
[22] = system: MDA-MB-231; assay: Induction of apoptosis in human MDA-MB-231 cells assessed as necrotic cells at 1.6 uM incubated for 24 hrs by Annexin V-FITC/PI staining based flow cytometry (reference value: 0.07 %); format: functional
[23] = system: MDA-MB-231; assay: Induction of apoptosis in human MDA-MB-231 cells assessed as decrease in STAT3 level by Western blot analysis; format: functional, cell-based; conditions: dose 0.1-0.4 µM
[24] = Cmax in Sprague-Dawley rat at 4 mg/kg, ip; format: ADME, organism-based; conditions: in vivo
[25] = system: HCC1806; assay: Antitumor activity against human HCC1806 cells xenografted in Balb/c mouse assessed as decrease in JAK2 level at 40 to 60 mg/kg, ip bid measured after 14 days by immunofluorescence based analysis; format: functional, organism-based; conditions: dose 40-60 mg/kg, time 14.0 day
[26] = system: HCC1806; assay: Induction of apoptosis in human HCC1806 cells assessed as necrotic cells at 0.2 uM incubated for 24 hrs by Annexin V-FITC/PI staining based flow cytometry (reference value: 0.15 %); format: functional
[27] = system: HCC1806; assay: Antitumor activity against human HCC1806 cells xenografted in Balb/c mouse at 60 mg/kg, ip bid measured after 14 days relative to control; format: functional; conditions: HCC1806, 336 h, time 14 day, read-out: TGI
[28] = system: HCC1806; assay: Inhibition of cell invasion in human HCC1806 cells; format: functional, cell-based; conditions: dose 0.05-2 µM
[29] = system: MDA-MB-231; assay: Induction of apoptosis in human MDA-MB-231 cells assessed as necrotic cells at 0.2 uM incubated for 24 hrs by Annexin V-FITC/PI staining based flow cytometry (reference value: 0.07 %); format: functional
[30] = system: MDA-MB-231; assay: Induction of apoptosis in human MDA-MB-231 cells assessed as early apoptotic cells at 0.8 uM incubated for 24 hrs by Annexin V-FITC/PI staining based flow cytometry (reference value: 1.16 %); format: functional
[31] = system: HCC1806; assay: Induction of apoptosis in human HCC1806 cells assessed as ROS production rate at 0.4 uM incubated for 24 hrs by DCFH-DA staining based flow cytometry (reference value: 0.23 %); format: functional
[32] = Toxicity in Balb/c nude mouse assessed as histopathological change in liver at 60 mg/kg, ip bid for 14 days consecutively; format: organism-based; conditions: in vivo, 336 h, time 14 day
[33] = system: MDA-MB-231; assay: Inhibition of cell invasion in human MDA-MB-231 cells; format: functional, cell-based; conditions: dose 0.05-2 µM
[34] = system: MDA-MB-231; assay: Induction of apoptosis in human MDA-MB-231 cells assessed as early apoptotic cells at 0.1 uM incubated for 24 hrs by Annexin V-FITC/PI staining based flow cytometry (reference value: 1.16 %); format: functional
[35] = system: MDA-MB-231; assay: Induction of apoptosis in human MDA-MB-231 cells assessed as necrotic cells at 0.4 uM incubated for 24 hrs by Annexin V-FITC/PI staining based flow cytometry (reference value: 0.07 %); format: functional
[36] = system: HCC1806; assay: Induction of apoptosis in human HCC1806 cells assessed as decrease in STAT3 phosphorylation at Y705 by Western blot analysis; format: functional, cell-based; conditions: dose 0.1-0.4 µM
[37] = system: HCC1806; assay: Downregulation of SOCS3 level in human HCC1806 cells at 0.1 to 0.4 uM incubated for 24 hrs by Western blot analysis; format: functional, cell-based; conditions: dose 0.1-0.4 µM

Chain of Tyrosine-protein kinase JAK2 (O60674 whole entry): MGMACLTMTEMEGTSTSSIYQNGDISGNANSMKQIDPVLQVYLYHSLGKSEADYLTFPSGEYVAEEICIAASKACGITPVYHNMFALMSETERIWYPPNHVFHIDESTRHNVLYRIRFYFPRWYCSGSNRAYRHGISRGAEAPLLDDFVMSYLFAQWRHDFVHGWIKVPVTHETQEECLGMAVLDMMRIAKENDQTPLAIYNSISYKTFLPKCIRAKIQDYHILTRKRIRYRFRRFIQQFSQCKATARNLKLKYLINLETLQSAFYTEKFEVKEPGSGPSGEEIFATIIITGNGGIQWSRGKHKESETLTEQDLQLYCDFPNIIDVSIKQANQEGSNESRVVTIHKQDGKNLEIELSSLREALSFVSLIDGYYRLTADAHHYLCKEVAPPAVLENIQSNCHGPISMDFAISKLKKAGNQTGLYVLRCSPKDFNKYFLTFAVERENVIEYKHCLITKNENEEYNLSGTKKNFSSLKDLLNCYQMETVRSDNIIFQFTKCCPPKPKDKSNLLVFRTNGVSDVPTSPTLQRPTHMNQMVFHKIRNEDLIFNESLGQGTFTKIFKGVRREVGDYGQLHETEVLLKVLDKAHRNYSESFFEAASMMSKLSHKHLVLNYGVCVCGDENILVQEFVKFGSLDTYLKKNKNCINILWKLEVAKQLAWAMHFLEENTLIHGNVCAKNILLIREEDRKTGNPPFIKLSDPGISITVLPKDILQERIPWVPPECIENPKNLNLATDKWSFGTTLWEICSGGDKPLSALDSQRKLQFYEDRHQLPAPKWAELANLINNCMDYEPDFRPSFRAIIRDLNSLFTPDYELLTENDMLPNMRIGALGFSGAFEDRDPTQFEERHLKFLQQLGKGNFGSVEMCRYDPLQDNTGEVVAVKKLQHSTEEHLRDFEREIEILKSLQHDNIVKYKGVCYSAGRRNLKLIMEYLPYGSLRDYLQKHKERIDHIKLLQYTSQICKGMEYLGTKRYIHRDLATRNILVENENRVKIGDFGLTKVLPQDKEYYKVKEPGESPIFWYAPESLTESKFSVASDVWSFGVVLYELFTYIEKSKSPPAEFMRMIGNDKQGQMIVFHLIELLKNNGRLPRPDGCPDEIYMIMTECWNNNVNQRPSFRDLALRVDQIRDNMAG

## COc1cc(Nc2cc(F)ccc2C(=O)NCCc2c[nH]c3c(F)ccc(F)c23)cc(OC)c1OC
[1]
  inhibition: Active
[2]
  Activity: 0.66%
[3]
  Activity: Active
[4]
  inhibition: Active
[5]
  Activity: Active
[6]
  Activity: 1.83%
[7]
  Activity: Active
[8]
  Activity: 1.92%
[9]
  Activity: 4.95%
[10]
  Activity: Active
[11]
  Activity: 0.35%
[12]
  Activity: Non-Toxic
[13]
  viability at 0.2 µM: 98.1%
[14]
  Activity: Active
[15]
  inhibition: Active
[16]
  Activity: 4.23%
[17]
  Activity: Active
[18]
  Activity: 2.3%
[19]
  viability at 0.1 µM: 96.9%
[20]
  Activity: 1.13%
[21]
  Activity: Active
[22]
  Activity: 0.09%
[23]
  Activity: Active
[24]
  Cmax: 229 ng/mL
[25]
  Activity: Active
[26]
  Activity: 0.33%
[27]
  inhibition in vivo at 60 mg/kg: 67.7%
[28]
  inhibition: Active
[29]
  Activity: 0.19%
[30]
  Activity: 3.18%
[31]
  Activity: 5%
[32]
  Activity: Non-Toxic
[33]
  inhibition: Active
[34]
  Activity: 1.66%
[35]
  Activity: 0.14%
[36]
  Activity: Active
[37]
  Activity: Active
